From US12024531B2, “Immunoproteasome inhibitors” (Principia Biopharma Inc., priority 2017, dated 2024)

Key:
Type in all cases: biochemical
[1] = target: immunoproteasome LMP7/B5i subunit (Homo sapiens, UniProt P28062); test: Caliper-based proteasome enzymatic activity assay, LMP7; conditions: human recombinant immunoproteasome 0.3 nM, FAM peptide substrate 1 μM, rt 3 h
[2] = target: constitutive proteasome β5c subunit (Homo sapiens, UniProt P28074); test: Caliper-based proteasome enzymatic activity assay, β5c; conditions: human recombinant constitutive proteasome 0.3 nM, FAM peptide substrate 1 μM, rt 3 h
[3] = target: immunoproteasome LMP2 subunit (Homo sapiens, UniProt P28065); test: Caliper-based proteasome enzymatic activity assay, LMP2; conditions: human recombinant immunoproteasome 0.3 nM, FAM peptide substrate 1 μM, rt 2 h

Structure (SMILES)	IC50 [1] [nM]	IC50 [2] [nM]	IC50 [3] [nM]
N#CC(=Cc1cccc(CCOC(=O)N[C@@H](Cc2ccccc2)B(O)O)c1)c1ccc(C(F)(F)F)cn1 [Example 56, (R)-(1-(((3-(2-cyano-2-(5-(trifluoromethyl)pyridin-2-yl)vinyl)phenethoxy)carbonyl)amino)-2-phenylethyl)boronic Acid]	3.8	439	1770
Cc1ccc(C[C@H](NC(=O)OCCc2cccc(C=C(C#N)c3ccccn3)c2)B(O)O)cc1 [Example 57, (R)-(1-(((3-(2-cyano-2-(pyridin-2-yl)vinyl)phenethoxy)carbonyl)amino)-2-(p-tolyl)ethyl)boronic Acid]	1.8	188	> 5000
N#CC(=Cc1cccc(CCOC(=O)N[C@@H](Cc2ccccc2)B(O)O)c1)c1ccncn1 [Example 59, (R)-(1-(((3-(2-cyano-2-(pyrimidin-4-yl)vinyl)phenethoxy)carbonyl)amino)-2-phenylethyl)boronic Acid]	0.9	354	544
CCN(CC)C(=O)C(C#N)=Cc1cccc(CCNC(=O)N[C@@H](Cc2ccccc2)B(O)O)c1 [Example 61, (R)-(1-(3-(3-(2-cyano-3-(diethylamino)-3-oxoprop-1-en-1-yl)phenethyl)ureido)-2-phenylethyl)boronic Acid]	43.2	> 5000	> 5000
N#CC(=Cc1cccc(CCNC(=O)N[C@@H](Cc2ccccc2)B(O)O)c1)c1ccccn1 [Example 62, (R)-(1-(3-(3-(2-cyano-2-(pyridin-2-yl)vinyl)phenethyl)ureido)-2-phenylethyl)boronic Acid]	186	> 5000	> 5000
N#CC(=Cc1cccc(CCOC(=O)N[C@@H](Cc2ccccc2)B(O)O)c1)c1cnccn1 [Example 63, (R)-(1-(((3-(2-cyano-2-(pyrazin-2-yl)vinyl)phenethoxy)carbonyl)amino)-2-phenylethyl)boronic Acid]	1.4	556	1510
C[C@@H]1COC[C@@H](C)N1C(=O)C(C#N)=Cc1cccc(CCOC(=O)N[C@@H](Cc2ccccc2)B(O)O)c1 [Example 65, ((R)-1-(((3-(2-cyano-3-((3R,5R)-3,5-dimethylmorpholino)-3-oxoprop-1-en-1-yl)phenethoxy)carbonyl)amino)-2-phenylethyl)boronic Acid]	0.6	1190	3560
N#CC(=Cc1ccc2c(c1)CN(CC(=O)N[C@@H](Cc1ccccc1)B(O)O)CC2)c1ccccn1 [Example 66, (R)-(1-(2-(7-(2-cyano-2-(pyridin-2-yl)vinyl)-3,4-dihydroisoquinolin-2(1H)-yl)acetamido)-2-phenylethyl)boronic Acid]	4.6	33.3	74.4
C[C@H]1COC[C@H](C)N1C(=O)C(C#N)=Cc1cccc(CCOC(=O)N[C@@H](Cc2ccccc2)B(O)O)c1 [Example 68, ((R)-1-(((3-(2-cyano-3-((3S,5S)-3,5-dimethylmorpholino)-3-oxoprop-1-en-1-yl)phenethoxy)carbonyl)amino)-2-phenylethyl)boronic Acid]	0.7	> 5000	> 5000
N#CC(=Cc1cccc(CCOC(=O)N[C@@H](Cc2ccccc2)B(O)O)c1)C(=O)N(C1CCOCC1)C1CCOCC1 [Example 72, (R)-(1-(((3-(3-(bis(tetrahydro-2H-pyran-4-yl)amino)-2-cyano-3-oxoprop-1-en-1-yl)phenethoxy)carbonyl)amino)-2-phenylethyl)boronic Acid]	1.4	> 5000	> 5000
N#CC(=Cc1cccc(CCNC(=O)N[C@@H](Cc2ccccc2)B(O)O)c1)c1ccc(C(F)(F)F)cn1 [Example 73, (R)-(1-(3-(3-(2-cyano-2-(5-(trifluoromethyl)pyridin-2-yl)vinyl)phenethyl)ureido)-2-phenylethyl)boronic Acid]	66.4	1900	2000
N#CC(=Cc1cc(CO)cc(CCOC(=O)N[C@@H](Cc2ccccc2)B(O)O)c1)c1ccccn1 [Example 76, (R)-(1-(((3-(2-cyano-2-(pyridin-2-yl)vinyl)-5-(hydroxymethyl)phenethoxy)carbonyl)amino)-2-phenylethyl)boronic Acid]	3.2	3410	> 5000
Cc1ccc(C[C@H](NC(=O)NCCc2cccc(C=C(C#N)c3ccccn3)c2)B(O)O)cc1 [Example 77, (R)-(1-(3-(3-(2-cyano-2-(pyridin-2-yl)vinyl)phenethyl)ureido)-2-(p-tolyl)ethyl)boronic Acid]	42	2150	> 5000
N#CC(=Cc1cccc(CCOC(=O)N[C@@H](Cc2ccccc2)B(O)O)c1)c1ccc(C#N)cn1 [Example 78, (R)-(1-(((3-(2-cyano-2-(5-cyanopyridin-2-yl)vinyl)phenethoxy)carbonyl)amino)-2-phenylethyl)boronic Acid]	1.6	390	690
CC1(C)COCCN1C(=O)C(C#N)=Cc1cccc(CCOC(=O)N[C@@H](Cc2ccccc2)B(O)O)c1 [Example 79, (R)-(1-(((3-(2-cyano-3-(3,3-dimethylmorpholino)-3-oxoprop-1-en-1-yl)phenethoxy)carbonyl)amino)-2-phenylethyl)boronic Acid]	0.9	998	1600

The next lines start with the values.

IC50 [1] [nM]	IC50 [2] [nM]	IC50 [3] [nM]	Structure (SMILES)
2.9	39.4	122	N#CC(=Cc1cc(OCCC(=O)N[C@@H](Cc2ccccc2)B(O)O)ccc1F)c1ccccn1 [Example 43, (R)-(1-(3-(3-(2-cyano-2-(pyridin-2-yl)vinyl)-4-fluorophenoxy)propanamido)-2-phenylethyl)boronic Acid]
2.1	388	3130	Cc1ccc(C[C@H](NC(=O)CCOc2cccc(C=C(C#N)C(=O)N(C)C)c2)B(O)O)c(C)c1 [Example 44, (R)-(1-(3-(3-(2-cyano-3-(dimethylamino)-3-oxoprop-1-en-1-yl)phenoxy)propanamido)-2-(2,4-dimethylphenyl)ethyl)boronic Acid]
4.3	92.7	1250	Cc1ccc(C[C@H](NC(=O)CCOc2cccc(C=C(C#N)c3ccccn3)c2)B(O)O)c(C)c1 [Example 45, (R)-1-(3-(3-(2-cyano-2-(pyridin-2-yl)vinyl)phenoxy)propanamido)-2-(2,4-dimethylphenyl)ethylboronic Acid]
4.6	141	370	COCCNC(=O)C(C#N)=Cc1cccc(OCCC(=O)N[C@@H](Cc2ccccc2)B(O)O)c1 [Example 46, (R)-(1-(3-(3-(2-cyano-3-((2-methoxyethyl)amino)-3-oxoprop-1-en-1-yl)phenoxy)propanamido)-2-phenylethyl)boronic Acid]
5.3	72.2	438	COCC(C)(C)NC(=O)C(C#N)=Cc1cccc(OCCC(=O)N[C@@H](Cc2ccccc2)B(O)O)c1 [Example 47, (R)-(1-(3-(3-(2-cyano-3-((1-methoxy-2-methylpropan-2-yl)amino)-3-oxoprop-1-en-1-yl)phenoxy)propanamido)-2-phenylethyl)boronic Acid]
5.1	90.4	415	COC(C)(C)CNC(=O)C(C#N)=Cc1cccc(OCCC(=O)N[C@@H](Cc2ccccc2)B(O)O)c1 [Example 48, (R)-(1-(3-(3-(2-cyano-3-((2-methoxy-2-methylpropyl)amino)-3-oxoprop-1-en-1-yl)phenoxy)propanamido)-2-phenylethyl)boronic Acid]
4.9	1130	2900	CN(C)C(=O)C(C#N)=Cc1cccc(COCC(=O)N[C@@H](Cc2ccccc2)B(O)O)c1 [Example 49, (R)-(1-(2-((3-(2-cyano-3-(dimethylamino)-3-oxoprop-1-en-1-yl)benzyl)oxy)acetamido)-2-phenylethyl)boronic Acid]
20.2	122	306	COc1cccnc1C(C#N)=Cc1cccc(OCCC(=O)N[C@@H](Cc2ccccc2)B(O)O)c1 [Example 51, (R)-(1-(3-(3-(2-cyano-2-(3-methoxypyridin-2-yl)vinyl)phenoxy)propanamido)-2-phenylethyl)boronic Acid]
1	212	> 5000	CN(C)C(=O)C(C#N)=Cc1cccc(CCOC(=O)N[C@@H](Cc2coc3ccccc23)B(O)O)c1 [Example 53, (R)-(2-(benzofuran-3-yl)-1-(((3-(2-cyano-3-(dimethylamino)-3-oxoprop-1-en-1-yl)phenethoxy)carbonyl)amino)ethyl)boronic Acid]
2.5	1920	4540	CCN(C(=O)C(C#N)=Cc1cccc(CCOC(=O)N[C@@H](Cc2ccccc2)B(O)O)c1)C(C)C [Example 64, (R)-(1-(((3-(2-cyano-3-(ethyl(isopropyl)amino)-3-oxoprop-1-en-1-yl)phenethoxy)carbonyl)amino)-2-phenylethyl)boronic Acid]
2.2	3020	3190	CCN(C(=O)C(C#N)=Cc1cccc(CCOC(=O)N[C@@H](Cc2ccccc2)B(O)O)c1)C(C)(C)C [Example 69, (R)-(1-(((3-(3-(tert-butyl(ethyl)amino)-2-cyano-3-oxoprop-1-en-1-yl)phenethoxy)carbonyl)amino)-2-phenylethyl)boronic Acid]
0.9	2420	2010	CN(C(=O)C(C#N)=Cc1cccc(CCOC(=O)N[C@@H](Cc2ccccc2)B(O)O)c1)C(C)(C)C [Example 71, (R)-(1-(((3-(3-(tert-butyl(methyl)amino)-2-cyano-3-oxoprop-1-en-1-yl)phenethoxy)carbonyl)amino)-2-phenylethyl)boronic Acid]
